{"source": "patent US20240165123A1", "about": "“USE OF A COMPOUND CONTAINING A TRICYCLIC HETEROARYL GROUP” (CSPC Zhongqi Pharmaceutical Technology (Shijiazhuang) Co., …, priority 2021, published 2024)", "tested_on": "OXA-induced Balb/c mouse atopic dermatitis model", "assay": "Pharmacodynamic test in the OXA-induced mouse atopic dermatitis model", "assay_type": "in vivo, female Balb/c mice", "description": "The purpose of this test was to evaluate the pharmacodynamics of Compound (I) in the OXA-induced Balb/c mouse atopic dermatitis model. Repeated OXA stimulation of the dorsal skin of mice could produce a long-term inflammatory reaction. This model was closer to the clinical skin inflammation and was a common model for screening and evaluating compounds with anti-inflammatory activity.\nFemale Balb/c mice aged 8-9 weeks, number: 70\nAccording to the body weight of animals in each group before administration, they were randomly divided into 7 groups with 10 animals in each group.\nOXA induction was performed on the 7th day. The induction mode was to apply 5% OXA (dissolved in the acetone/olive oil (4/1) solvent) to the back of mice near the neck in an amount of 10 μL (1.5 cm×1.5 cm). Mice in the normal control group were applied with 10 μL of the acetone/olive oil (4/1) solvent in the same way. From the 1st da to 22nd day, the immunostimulation was performed, and 100 μL of 0.1% OXA (dissolved in the acetone/olive oil (4/1) solvent) was evenly applied on the back of mice near the neck. The application was performed every two days. Mice in the normal control group were applied with 100 μL of the acetone/olive oil (4/1) solvent in the same way. On the day of the immunostimulation, measuring the skin thickness, clinically scoring and photographing were required, and the OXA application was carried out after the above work was completed.\nCompound (I) was administered by gavage twice a day (PO, bid) from the 1st to 22nd day. The administration was performed in the morning and completed before measuring the skin thickness, clinically scoring, photographing, and the OXA immunostimulation. The interval between two administrations was 8 hours.\nBody weight data were recorded twice a week.\nSkin thickness (1.5 cm×1.5 cm, the modeling area) was measured with a Mitutoyo digital indicator (Mitutoyo digimatic indicator, Type ID-C, USA) from the 1st to 22nd day. The measurement was performed every two days. If the skin thickness measurement and the OXA immunostimulation were performed on the same day, the skin thickness measurement would be preferred.\nThe skin in the modeling area was clinically scored according to the skin scoring criteria in Table 12 from the 1st to 22nd day and evaluated every two days. If the skin clinical scoring and the OXA immunostimulation were performed on the same day, the skin clinical scoring would be preferred.\nAt the end of the study, the tissue in the modeling area was stained with hematoxylin eosin for the skin pathological scoring and the epidermal thickness measurement.\nAfter the mice were sacrificed, the dorsal skin was removed and fixed in 10% neutral formalin for 24 hours. It was dehydrated, then embedded in paraffin and made into 4-micron sections. The skin sections were stained with hematoxylin eosin, and the inflammatory cell infiltration and tissue changes in the stratum corneum, the epidermis layer and the dermis layer were observed under the microscope, and the pathological scores were made. The scoring criteria were: inflammatory cell aggregation and edema, which were divided into slight 1 point, moderate 2 points, and severe 3 points; telangiectasia, which was divided into slight 1 point, moderate 2 points, and severe 3 points.\nThe specific scoring criteria of inflammatory cell aggregation were as follows: (1) slight-1 point: inflammatory cells occupied a small amount of <10% of the dermal area of the skin; (2) moderate-2 points: inflammatory cells occupied 10%-50% of the dermal area of the skin; (3) severe-3 points: the inflammatory cells occupied greater than 50% of the dermal area of the skin. […]", "key": {"[1]": {"conditions": "3 mpk PO bid, after 22 days of treatment"}}}
{"smiles": "NC(=O)c1cnc(Nc2ccc3c(c2)OC[C@H]2CN(S(=O)(=O)C4CC4)CCN32)nc1NC1CC1", "note": "[Compound (I), (R)-4-(cyclopropylamino)-2-((3-(cyclopropylsulfonyl)-1,2,3,4,4a,5-hexahydrobenzo[b]pyrazolo[1,2-d][1,4]oxazin-8-yl)amino)pyrimidine-5-arboxamide]", "values": [{"measurement": "Influence on the body weight of mice", "setting": "3, 10, 30 and 60 mpk PO bid, end of the study", "result": "no significant influence on the body weight of mice"}, {"measurement": "Body weight", "setting": "3 mpk PO bid, 1st Day", "result": "18.11 ± 0.13", "unit": "g"}, {"measurement": "Skin clinical score", "setting": "3 mpk PO bid, 1st Day", "result": "0.4 ± 0.16"}, {"measurement": "Skin thickness (modeling area)", "setting": "3 mpk PO bid, 1st day", "result": "0.511 ± 0.016", "unit": "mm"}, {"measurement": "Body weight", "setting": "3 mpk PO bid, 7th Day", "result": "18.83 ± 0.20", "unit": "g"}, {"measurement": "Skin thickness (modeling area)", "setting": "3 mpk PO bid, 7th day", "result": "0.944 ± 0.026", "unit": "mm"}, {"measurement": "Skin clinical score", "setting": "3 mpk PO bid, 9th day", "result": "3.1 ± 0.10"}, {"measurement": "Skin thickness (modeling area)", "setting": "3 mpk PO bid, 17th day", "result": "1.361 ± 0.043", "unit": "mm"}, {"measurement": "Skin clinical score", "setting": "3 mpk PO bid, 19th day", "result": "2.9 ± 0.10"}, {"measurement": "Skin clinical score", "setting": "3 mpk PO bid, 22nd day", "result": "3.0 ± 0.00"}, {"measurement": "Skin thickness (modeling area)", "setting": "3 mpk PO bid, 22nd day", "result": "1.368 ± 0.028", "unit": "mm"}, {"measurement": "Epidermal thickness", "setting": "[1]", "result": "75.79 ± 3.36", "unit": "μm"}, {"measurement": "Pathological score", "setting": "[1]", "result": "6.4 ± 0.34"}, {"measurement": "Body weight", "setting": "3 mpk PO bid, −7th Day", "result": "18.11 ± 0.13", "unit": "g"}, {"measurement": "Body weight", "setting": "10 mpk PO bid, 1st Day", "result": "18.11 ± 0.13", "unit": "g"}, {"measurement": "Skin clinical score", "setting": "10 mpk PO bid, 1st Day", "result": "0.4 ± 0.16"}, {"measurement": "Skin thickness (modeling area)", "setting": "10 mpk PO bid, 1st day", "result": "0.535 ± 0.027", "unit": "mm"}, {"measurement": "Body weight", "setting": "10 mpk PO bid, 7th Day", "result": "18.80 ± 0.22", "unit": "g"}, {"measurement": "Skin thickness (modeling area)", "setting": "10 mpk PO bid, 7th day", "result": "0.958 ± 0.026", "unit": "mm"}, {"measurement": "Skin clinical score", "setting": "10 mpk PO bid, 9th day", "result": "3.0 ± 0.00"}, {"measurement": "Skin thickness (modeling area)", "setting": "10 mpk PO bid, 17th day", "result": "1.257 ± 0.020", "unit": "mm"}, {"measurement": "Skin clinical score", "setting": "10 mpk PO bid, 19th day", "result": "2.7 ± 0.15"}, {"measurement": "Skin clinical score", "setting": "10 mpk PO bid, 22nd day", "result": "2.7 ± 0.15"}, {"measurement": "Skin thickness (modeling area)", "setting": "10 mpk PO bid, 22nd day", "result": "1.338 ± 0.021", "unit": "mm"}, {"measurement": "Body weight", "setting": "10 mpk PO bid, −7th Day", "result": "18.11 ± 0.13", "unit": "g"}, {"measurement": "Body weight", "setting": "30 mpk PO bid, 1st Day", "result": "18.10 ± 0.12", "unit": "g"}, {"measurement": "Skin clinical score", "setting": "30 mpk PO bid, 1st Day", "result": "0.5 ± 0.17"}, {"measurement": "Skin thickness (modeling area)", "setting": "30 mpk PO bid, 1st day", "result": "0.534 ± 0.029", "unit": "mm"}, {"measurement": "Body weight", "setting": "30 mpk PO bid, 7th Day", "result": "18.79 ± 0.11", "unit": "g"}, {"measurement": "Skin thickness (modeling area)", "setting": "30 mpk PO bid, 7th day", "result": "0.976 ± 0.021", "unit": "mm"}, {"measurement": "Skin clinical score", "setting": "30 mpk PO bid, 9th day", "result": "3.0 ± 0.00"}, {"measurement": "Body weight", "setting": "30 mpk PO bid, −7th Day", "result": "18.10 ± 0.12", "unit": "g"}, {"measurement": "Body weight", "setting": "60 mpk PO bid, 1st Day", "result": "18.10 ± 0.12", "unit": "g"}, {"measurement": "Skin clinical score", "setting": "60 mpk PO bid, 1st Day", "result": "0.6 ± 0.16"}, {"measurement": "Skin thickness (modeling area)", "setting": "60 mpk PO bid, 1st day", "result": "0.556 ± 0.035", "unit": "mm"}, {"measurement": "Body weight", "setting": "60 mpk PO bid, 7th Day", "result": "18.92 ± 0.13", "unit": "g"}, {"measurement": "Skin thickness (modeling area)", "setting": "60 mpk PO bid, 7th day", "result": "0.993 ± 0.033", "unit": "mm"}, {"measurement": "Skin clinical score", "setting": "60 mpk PO bid, 9th day", "result": "3.0 ± 0.00"}, {"measurement": "Body weight", "setting": "60 mpk PO bid, −7th Day", "result": "18.10 ± 0.12", "unit": "g"}]}
